According to ChEMBL document CHEMBL5360540, “Antitumor effect of 3-(quinolin-2-ylmethylene)-4,6-dimethyl-5-hydroxy-7-azaoxindole down-regulating the Gas6-Axl axis” (Eur J Med Chem, 2023):
pIC50: −log10 of the molar value.

Key:
MCF7 [1] = test: Cytotoxicity against human MCF7 cells assessed as inhibition of cell growth at 30 uM incubated for 48 hrs by MTT assay relative to control; format: functional
PANC-1 [2] = test: Cytotoxicity against human PANC-1 cells assessed as inhibition of cell growth at 30 uM incubated for 48 hrs by MTT assay relative to control; format: functional
MCF7 [3] = test: Cytotoxicity against human MCF7 cells assessed as inhibition of cell growth incubated for 48 hrs by MTT assay; format: functional, cell-based; conditions: MCF7, 48 h
MDA-MB-231 = test: Cytotoxicity against human MDA-MB-231 cells assessed as inhibition of cell growth incubated for 48 hrs by MTT assay; format: functional, cell-based; conditions: MDA-MB-231, 48 h
HT-29 = test: Cytotoxicity against human HT-29 cells assessed as inhibition of cell growth incubated for 48 hrs by MTT assay; format: functional, cell-based; conditions: HT-29, 48 h
DU-145 = test: Cytotoxicity against human DU-145 cells assessed as inhibition of cell growth incubated for 48 hrs by MTT assay; format: functional, cell-based; conditions: DU-145, 48 h
U-937 = test: Cytotoxicity against human U-937 cells assessed as inhibition of cell growth incubated for 48 hrs by MTT assay; format: functional, cell-based; conditions: U-937, 48 h
A549 = test: Cytotoxicity against human A549 cells assessed as inhibition of cell growth incubated for 48 hrs by MTT assay; format: functional, cell-based; conditions: A549, 48 h
PANC-1 [4] = test: Cytotoxicity against human PANC-1 cells assessed as inhibition of cell growth incubated for 48 hrs by MTT assay; format: functional, cell-based; conditions: PANC-1, 48 h
[5] = Cytotoxicity against CHO-K1 cells assessed as inhibition of cell growth incubated for 48 hrs by MTT assay; format: toxicity, cell-based, Cricetulus griseus; conditions: Chinese hamster
[6] = Cytotoxicity against HEK293 cells assessed as inhibition of cell growth incubated for 48 hrs by MTT assay; format: toxicity, cell-based; conditions: human

Row | Structure (SMILES) | inhibition at 30 µM (MCF7 [1]) [%] | inhibition at 30 µM (PANC-1 [2]) [%] | further results
1 | Cc1nc2c(c(C)c1O)/C(=C/c1nccs1)C(=O)N2 | 5.6 | 9 | –
2 | Cc1ccsc1/C=C1\C(=O)Nc2nc(C)c(O)c(C)c21 | 59 | 47.3 | –
3 | Cc1nc2c(c(C)c1O)/C(=C/c1cnc[nH]1)C(=O)N2 | 4.1 | 4.5 | –
4 | Cc1nc2c(c(C)c1O)/C(=C/c1ccc(F)cc1)C(=O)N2 | 48.3 | 51.9 | –
5 | COc1ccc(OC)c(/C=C2\C(=O)Nc3nc(C)c(O)c(C)c32)c1 | 67.5 | 69.3 | pIC50 (MCF7 [3]): 4.68; pIC50 (MDA-MB-231): 4.64; pIC50 (HT-29): 4.78; pIC50 (DU-145): 5.25; pIC50 (U-937): 4.48; pIC50 (A549): 4.32; pIC50 (PANC-1 [4]): 4.71; IC50 at 48 h [5]: 47.5 µM; IC50 at 48 h [6]: 11 µM
6 | Cc1nc2c(c(C)c1O)/C(=C/c1ncc[nH]1)C(=O)N2 | 2.6 | 7.2 | –
7 | Cc1ccc(/C=C2\C(=O)Nc3nc(C)c(O)c(C)c32)cc1 | 32.3 | 29.2 | –
8 | Cc1nc2c(c(C)c1O)/C(=C/c1ccoc1)C(=O)N2 | 66.3 | 26.2 | pIC50 (MCF7 [3]): 4.64; pIC50 (MDA-MB-231): < 4.05; pIC50 (HT-29): < 4.05; pIC50 (DU-145): 4.64; pIC50 (U-937): 4.50; pIC50 (A549): < 4.05; pIC50 (PANC-1 [4]): < 4.00; IC50 at 48 h [5]: > 90 µM; IC50 at 48 h [6]: > 90 µM
9 | Cc1nc2c(c(C)c1O)/C(=C/c1cccc3[nH]ccc13)C(=O)N2 | 14.5 | 32.3 | –
10 | Cc1nc2c(c(C)c1O)/C(=C/c1ccco1)C(=O)N2 | 31.5 | 16.4 | –
11 | Cc1nc2c(c(C)c1O)/C(=C/c1ccc[nH]1)C(=O)N2 | 27 | 16.9 | –
12 | Cc1nc2c(c(C)c1O)/C(=C/c1ccc([N+](=O)[O-])cc1)C(=O)N2 | 16.3 | 32.6 | –
13 | COc1ccc(/C=C2\C(=O)Nc3nc(C)c(O)c(C)c32)cc1 | 23.9 | 36.4 | –
14 | Cc1nc2c(c(C)c1O)/C(=C/c1c[nH]c3ccccc13)C(=O)N2 | 2.4 | 17.1 | –
15 | Cc1cc(C)c(/C=C2\C(=O)Nc3nc(C)c(O)c(C)c32)[nH]1 | 47.3 | 44.8 | –
16 | CCC(/C=C1\C(=O)Nc2nc(C)c(O)c(C)c21)CC | 30.5 | 45 | –
17 | COc1cc(/C=C2\C(=O)Nc3nc(C)c(O)c(C)c32)cc(OC)c1OC | 41.2 | 40.7 | –
